Where two headings read alike, the source gives them in different places.

One series is described as follows: in vitro. The class given is in vitro ADME, Canine. The following applies: dog, MDCK. On the procedure:
Cells used: MDCK (Madin-Darby Canine Kidney) cells, ATCC collection # CCL-34, are used to model the intestinal barrier. Cell culture conditions: cells were cultured at 37° C. in a 5% CO2 environment and split twice a week on seeding at 4×10^5 cells/flask (75 cm^2) on day 1 and 2×10^5 cells/flask on day 4. The culture medium consisted of MEM+Earle's-L Glutamine (Gibco #21090-022) supplemented with 10% Australian Fetal Calf Serum (Sigma #F6178), 2 mM L-Glutamine (Gibco #25030-024) and 1× Non Essential Amino Acids (Gibco #11140-035)
On day 1, a 24-well plate (Sarstedt, #83.1836.300) was filled with individual 3 lam pore membrane inserts (Millipore, #PITP 012 50). Each plate allows the testing of a cocktail of 3 control compounds and 11 test compounds in duplicate. The wells (outside the inserts) were filled with 500 μl of culture medium.
A flask of cells was trypsinised and a cell count carried out. Cells were diluted to 1.2×10^5 cells/ml (1×10^5 cells/cm^2) and 500 μl dispensed in each insert on the 24-well plate. The plate was incubated at 37° C. in a 5% CO2 environment for 48 hours.
On day 3, the culture medium was removed from the wells, then the inserts and is replaced with fresh culture medium in the wells, then the inserts (500111 per well and insert) The plate was incubated at 37° C. in a 5% CO2 environment for 24 hours.
On day 4, the controls cocktail and test compounds solutions were made up in HBSS buffer (Hank's Balanced Salt Solution, Gibco #14025-050) at 1011M. The final controls and test compounds concentration in the assay was 10 μM, and DMSO concentration maintained at 0.1% (0.3% for the controls cocktail). The controls cocktail was made up of Atenolol (Sigma # A-7655), Dexamethasone (Sigma #D-1756) and Propranolol (Sigma # P-0884).
A 24-well plate was filled with 500 μl of HBSS buffer per well (assay plate) The culture medium was removed from the wells and inserts. The inserts were washed three times with approximately 500 μl of HBSS buffer. The inserts were transferred to the assay plate. Controls cocktail and test compounds solutions were dispensed inside the inserts (500 μl per insert), in duplicates. The assay plate was incubated at 37° C. in a 5% CO2 environment for 2 hours.
After 2 hours, the inserts were removed from the assay plate and transferred into a new 24-well plate (wash plate) The assay plate containing the receiver solutions was left aside for later sampling. To measure the mass balance, 150 μl were sampled from each insert (donor solutions) and dispensed into 150 μl of HPLC-grade Acetonitrile (Fisher Scientific) containing an internal standard and 0.05% formic acid.
The donor solutions were aspirated and discarded from each insert, and the inserts washed once with approximately 500 μl of HBSS buffer. A 24-well plate was filled with 500 μl of HBSS buffer per well (monolayer integrity plate) A Lucifer Yellow (Sigma #L0144) solution was made up at 1001.1M in HBSS buffer. The empty inserts were transferred into the monolayer integrity plate and filled with 500 μl of the Lucifer Yellow solution to determine the cell monolayers integrity and leftover of the solution was kept in a fridge. The plate was incubated at 37° C. in a 5% CO2 environment for 2 hours.
In the meantime, 150 μl were sampled from the assay plate (receiver solutions) and dispensed into 150 μl of HPLC-grade Acetonitrile containing an internal standard and 0.05% formic acid. A calibration curve was made for each mix of compounds (as appropriate depending on compounds molecular weights) A 10 μM mix of compounds in HBSS buffer was diluted 1:1 in HPLC-grade Acetonitrile containing an internal standard and 0.05% formic acid. A 1:1 mix of HBSS buffer and HPLC-grade Acetonitrile containing an internal standard and 0.05% formic acid was made up and used to make up the calibration curve (2 fold dilutions), with concentrations ranging from 10 μM to 0.078 μM. […]

The test system of series [1] is HCV replicon cells Huh 9B. The class given is cell-based. The following applies: Huh 9B replicon cells, 72 h, methylene blue, total cell area reduced by 50%. On the procedure: HCV replicon cells Huh 9B (ReBlikon), containing the firefly luciferase-ubiquitin-neomycin phosphotransferase fusion protein and EMCV-IRES driven HCV polyprotein with cell culture adaptive mutations.
Replicon cells were trypsinised and counted. Cells were diluted to 100,000 cells/ml and 100 μl used to seed one opaque white 96-well plate (for the replicon assay) and one flat-bottomed clear plate (for the tox assay) for every five compounds to be tested for IC50. Wells G12 and H12 were left empty in the clear plate as the blank. Plates were then incubated at 37° C./5% CO2 for 24 h.
On the following day compound dilutions were prepared in medium at twice their desired final concentration in a clear round bottomed plate. All dilutions have a final DMSO concentration of 1%.
Controls and compounds were transferred from the dilution plates to the assay plates (containing the cells) at 100 μl/well in duplicate wells.
Exception: no compound was added to wells A1 and A2 of either plate and 100 μl of 1% DMSO was added to these instead. Plates were then incubated at 37° C./5% CO2 for 72 h.
The clear plate was stained with 100 μA 0.5% methylene blue in 50% ethanol at room temperature for 1 h, followed by solvation of the absorbed methylene blue in 100 μl per well of 1% lauroylsarcosine. Absorbance of the plate was measured on a microplate spectrophotometer (Molecular Devices) and the absorbance for each concentration of compound expressed as a proportion of the relative DMSO control. The TD50, the is concentration of drug required to reduce the total cell area by 50% relative to the DMSO controls, was calculated by plotting the absorbance at 620 nm after background substraction against drug concentration.
(In general: A replicon is a self-replicating genome or part of one, used to study replication in cells.)

Series [2] relates to HCV replicon cells Huh 9B (genotype 1b). Put plainly: 1b Replicon Assay (luciferase readout). The class given is cell-based. As to conditions: Hepatitis C virus, Huh 9B replicon cells, 72 h, luciferase activity.
Setting [3] is: read-out: pIC50 1b Replicon (converted).

In turn, `COC(=O)N[C@@H](C(=O)N1CCC[C@H]1c1ncc(-c2ccc(-c3ccc(C(=O)Nc4ccc(CN5CCS(=O)(=O)CC5)cc4)cc3)cc2)[nH]1)C(C)C` [Example 13, Methyl N-[(1R)-1-[(2S)-2-[5-[4-[4-[[4-[(1,1-dioxo-1,4-thiazinan-4-yl)methyl]phenyl]carbamoyl]phenyl]phenyl]-1H-imidazol-2-yl]pyrrolidine-1-carbonyl]-2-methyl-propyl]carbamate] displayed a Papp at 2 h, 10 µM in the series “in vitro” of 0.3 ×10⁻⁶ cm/s. In addition, in series [1], the “HCV TD50 Replicon” value was greater than 25 µM. Moreover, the IC50 was 42.2 nM in series [2] (read-out: HCV IC50 1b Replicon) and 41.7 nM in series [2] (setting [3]).

In turn, `COC(=O)N[C@H](CC(C)C)C(=O)N1CCC[C@H]1c1ncc(-c2ccc(-c3ccc(C(=O)Nc4ccc(CN5CCS(=O)(=O)CC5)cc4)cc3)cc2)[nH]1` [Example 15, Methyl N-[(1R)-1-[(2S)-2-[5-[4-[4-[[4-[(1,1-dioxo-1,4-thiazinan-4-yl)methyl]phenyl]carbamoyl]phenyl]phenyl]-1H-imidazol-2-yl]pyrrolidine-1-carbonyl]-3-methyl-butyl]carbamate] registered a Papp at 2 h, 10 µM in “in vitro” of 0.3 ×10⁻⁶ cm/s. Moreover, in series [1], the “HCV TD50 Replicon” value was greater than 25 µM. Also, the values for the IC50 in series [2] (read-out: HCV IC50 1b Replicon) and in series [2] (setting [3]) were 3.84 nM and 3.8 nM, respectively.

In “in vitro”, `COC(=O)N[C@H](C(=O)N1CCC[C@H]1c1ncc(-c2ccc(-c3ccc(C(=O)Nc4ccc(CN5CCS(=O)(=O)CC5)cc4)cc3)cc2)[nH]1)[C@@H](C)O` [Example 17, Methyl N-[(1S,2R)-1-[(2S)-2-[5-[4-[4-[[4-[(1,1-dioxo-1,4-thiazinan-4-yl)methyl]phenyl]carbamoyl]phenyl]phenyl]-1H-imidazol-2-yl]pyrrolidine-1-carbonyl]-2-hydroxy-propyl]carbamate] displayed a Papp at 2 h, 10 µM of 0.4 ×10⁻⁶ cm/s. Moreover, the “HCV TD50 Replicon” value in series [1] worked out at 18.4 µM. Further, the IC50 in series [2] (read-out: HCV IC50 1b Replicon) was 0.3 nM; in series [2] (setting [3]) it was 0.302 nM.

Consider `COC(=O)N[C@@H](C)C(=O)N1CCC[C@@H]1c1ncc(-c2ccc(-c3ccc(C(=O)Nc4ccc(CN5CCS(=O)(=O)CC5)cc4)cc3)cc2)[nH]1` [Example 21, Methyl N-[(1S)-2-[(2R)-2-[5-[4-[4-[[4-[(1,1-dioxo-1,4-thiazinan-4-yl)methyl]phenyl]carbamoyl]phenyl]phenyl]-1H-imidazol-2-yl]pyrrolidin-1-yl]-1-methyl-2-oxo-ethyl]carbamate], for which the Papp at 2 h, 10 µM in “in vitro” amounted to 1.4 ×10⁻⁶ cm/s. Further, the IC50 in series [2] (read-out: HCV IC50 1b Replicon) is 418 nM; in series [2] (setting [3]) it was 417 nM.

In turn, `COC(=O)N[C@H](C(=O)N1CCC[C@@H]1c1ncc(-c2ccc(-c3ccc(C(=O)Nc4ccc(CN5CCS(=O)(=O)CC5)cc4)cc3)cc2)[nH]1)C(C)(C)C` [Example 22, Methyl N-[(1S)-1-[(2R)-2-[5-[4-[4-[[4-[(1,1-dioxo-1,4-thiazinan-4-yl)methyl]phenyl]carbamoyl]phenyl]phenyl]-1H-imidazol-2-yl]pyrrolidine-1-carbonyl]-2,2-dimethyl-propyl]carbamate] displayed a Papp at 2 h, 10 µM in the series “in vitro” of 0.55 ×10⁻⁶ cm/s. Further, the IC50 is 266 nM in series [2] (read-out: HCV IC50 1b Replicon) and 263 nM in series [2] (setting [3]).

As a reminder, the Papp is a coefficient for how fast a substance crosses the barrier. Low readings indicate slow passage, high ones fast passage.

For the origin of these results see patent publication US20100215618A1, “NOVEL COMPOUNDS - 644” (Arrow Therapeutics Limited, priority 2009, published 2010).
